Patent US10670605B2, “Cysteine reactive probes and uses thereof” (The Scripps Research Institute, priority 2015, dated 2020)
One block for each molecule: values may come before it.

Tests used:
Assay in all cases: Competitive isoTOP-ABPP, cell lysates
Format in all cases: binding
CYR61 C134 (O00622) = target: T1, CYR61 C134 (O00622) (Homo sapiens, UniProt O00622); details: for isoTOP-ABPP ratio (reactivity profile), O00622_C134: 500 μm in-vitro ramos_231
T1 sequence (O00622 25-381): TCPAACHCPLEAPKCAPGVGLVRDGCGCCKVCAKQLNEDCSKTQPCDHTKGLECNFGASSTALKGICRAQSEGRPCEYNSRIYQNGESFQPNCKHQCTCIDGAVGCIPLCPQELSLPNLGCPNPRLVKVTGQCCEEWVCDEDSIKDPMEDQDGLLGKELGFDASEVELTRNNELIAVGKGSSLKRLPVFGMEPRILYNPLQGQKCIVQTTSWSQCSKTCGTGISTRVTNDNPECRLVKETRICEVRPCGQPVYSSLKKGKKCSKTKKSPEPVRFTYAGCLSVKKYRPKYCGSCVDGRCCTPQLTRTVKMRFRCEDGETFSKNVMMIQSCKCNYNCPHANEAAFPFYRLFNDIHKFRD

NR3C1 C622 (P04150) = target: T2, NR3C1 C622 (P04150) (Homo sapiens, UniProt P04150)
T2 sequence (P04150 1-777): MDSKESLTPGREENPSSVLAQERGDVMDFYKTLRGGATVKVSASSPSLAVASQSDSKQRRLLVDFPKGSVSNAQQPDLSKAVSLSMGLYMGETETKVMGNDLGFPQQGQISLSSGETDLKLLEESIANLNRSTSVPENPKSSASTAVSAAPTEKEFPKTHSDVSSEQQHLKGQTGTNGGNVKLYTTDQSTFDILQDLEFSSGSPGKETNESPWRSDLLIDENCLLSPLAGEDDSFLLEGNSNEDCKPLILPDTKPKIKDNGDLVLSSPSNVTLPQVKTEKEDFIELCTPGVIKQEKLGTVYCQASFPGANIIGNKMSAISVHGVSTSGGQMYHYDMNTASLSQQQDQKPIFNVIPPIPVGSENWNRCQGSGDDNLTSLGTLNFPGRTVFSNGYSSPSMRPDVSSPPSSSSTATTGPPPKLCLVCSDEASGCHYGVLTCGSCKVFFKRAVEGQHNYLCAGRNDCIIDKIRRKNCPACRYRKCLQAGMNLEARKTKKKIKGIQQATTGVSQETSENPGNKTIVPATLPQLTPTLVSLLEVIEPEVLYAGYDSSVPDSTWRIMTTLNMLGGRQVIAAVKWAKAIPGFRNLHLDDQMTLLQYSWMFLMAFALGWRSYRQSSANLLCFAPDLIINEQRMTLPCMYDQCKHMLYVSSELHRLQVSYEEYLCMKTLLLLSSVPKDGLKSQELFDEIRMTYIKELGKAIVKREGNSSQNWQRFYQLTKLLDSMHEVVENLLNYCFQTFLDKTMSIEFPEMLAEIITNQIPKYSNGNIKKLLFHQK

USP34 C1090 (Q70CQ2) = USP34 C1090 (Q70CQ2) (Homo sapiens, UniProt Q70CQ2); details: for isoTOP-ABPP ratio (reactivity profile), Q70CQ2_C1090: 500 μm in-vitro ramos
ZAP70 C117 (P43403) = target: T3, ZAP70 C117 (P43403) (Homo sapiens, UniProt P43403); details: for isoTOP-ABPP ratio, P43403_C117: 500 μM, invitro; for isoTOP-ABPP ratio (reactivity profile), P43403_C117: 500 μm in-vitro ramos
T3 sequence (P43403 1-619): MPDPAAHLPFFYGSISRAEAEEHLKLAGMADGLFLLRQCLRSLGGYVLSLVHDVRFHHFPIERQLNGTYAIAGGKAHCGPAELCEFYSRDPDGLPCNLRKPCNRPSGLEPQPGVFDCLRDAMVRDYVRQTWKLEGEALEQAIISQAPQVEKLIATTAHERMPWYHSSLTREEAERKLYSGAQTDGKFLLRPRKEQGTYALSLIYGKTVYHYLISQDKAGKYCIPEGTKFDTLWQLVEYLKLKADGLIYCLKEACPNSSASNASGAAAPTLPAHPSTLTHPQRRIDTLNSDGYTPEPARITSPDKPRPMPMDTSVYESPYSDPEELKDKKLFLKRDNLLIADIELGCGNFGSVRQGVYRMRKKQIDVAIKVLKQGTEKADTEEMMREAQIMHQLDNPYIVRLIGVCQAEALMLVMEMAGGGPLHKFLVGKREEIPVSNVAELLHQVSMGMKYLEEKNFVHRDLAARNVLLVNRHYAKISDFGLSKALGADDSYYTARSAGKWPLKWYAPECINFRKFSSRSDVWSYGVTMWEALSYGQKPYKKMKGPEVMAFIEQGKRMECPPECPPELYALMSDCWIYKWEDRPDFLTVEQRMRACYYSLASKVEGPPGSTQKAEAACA

USP34 C1090 (Q70CQ2), sequence (Q70CQ2 whole entry): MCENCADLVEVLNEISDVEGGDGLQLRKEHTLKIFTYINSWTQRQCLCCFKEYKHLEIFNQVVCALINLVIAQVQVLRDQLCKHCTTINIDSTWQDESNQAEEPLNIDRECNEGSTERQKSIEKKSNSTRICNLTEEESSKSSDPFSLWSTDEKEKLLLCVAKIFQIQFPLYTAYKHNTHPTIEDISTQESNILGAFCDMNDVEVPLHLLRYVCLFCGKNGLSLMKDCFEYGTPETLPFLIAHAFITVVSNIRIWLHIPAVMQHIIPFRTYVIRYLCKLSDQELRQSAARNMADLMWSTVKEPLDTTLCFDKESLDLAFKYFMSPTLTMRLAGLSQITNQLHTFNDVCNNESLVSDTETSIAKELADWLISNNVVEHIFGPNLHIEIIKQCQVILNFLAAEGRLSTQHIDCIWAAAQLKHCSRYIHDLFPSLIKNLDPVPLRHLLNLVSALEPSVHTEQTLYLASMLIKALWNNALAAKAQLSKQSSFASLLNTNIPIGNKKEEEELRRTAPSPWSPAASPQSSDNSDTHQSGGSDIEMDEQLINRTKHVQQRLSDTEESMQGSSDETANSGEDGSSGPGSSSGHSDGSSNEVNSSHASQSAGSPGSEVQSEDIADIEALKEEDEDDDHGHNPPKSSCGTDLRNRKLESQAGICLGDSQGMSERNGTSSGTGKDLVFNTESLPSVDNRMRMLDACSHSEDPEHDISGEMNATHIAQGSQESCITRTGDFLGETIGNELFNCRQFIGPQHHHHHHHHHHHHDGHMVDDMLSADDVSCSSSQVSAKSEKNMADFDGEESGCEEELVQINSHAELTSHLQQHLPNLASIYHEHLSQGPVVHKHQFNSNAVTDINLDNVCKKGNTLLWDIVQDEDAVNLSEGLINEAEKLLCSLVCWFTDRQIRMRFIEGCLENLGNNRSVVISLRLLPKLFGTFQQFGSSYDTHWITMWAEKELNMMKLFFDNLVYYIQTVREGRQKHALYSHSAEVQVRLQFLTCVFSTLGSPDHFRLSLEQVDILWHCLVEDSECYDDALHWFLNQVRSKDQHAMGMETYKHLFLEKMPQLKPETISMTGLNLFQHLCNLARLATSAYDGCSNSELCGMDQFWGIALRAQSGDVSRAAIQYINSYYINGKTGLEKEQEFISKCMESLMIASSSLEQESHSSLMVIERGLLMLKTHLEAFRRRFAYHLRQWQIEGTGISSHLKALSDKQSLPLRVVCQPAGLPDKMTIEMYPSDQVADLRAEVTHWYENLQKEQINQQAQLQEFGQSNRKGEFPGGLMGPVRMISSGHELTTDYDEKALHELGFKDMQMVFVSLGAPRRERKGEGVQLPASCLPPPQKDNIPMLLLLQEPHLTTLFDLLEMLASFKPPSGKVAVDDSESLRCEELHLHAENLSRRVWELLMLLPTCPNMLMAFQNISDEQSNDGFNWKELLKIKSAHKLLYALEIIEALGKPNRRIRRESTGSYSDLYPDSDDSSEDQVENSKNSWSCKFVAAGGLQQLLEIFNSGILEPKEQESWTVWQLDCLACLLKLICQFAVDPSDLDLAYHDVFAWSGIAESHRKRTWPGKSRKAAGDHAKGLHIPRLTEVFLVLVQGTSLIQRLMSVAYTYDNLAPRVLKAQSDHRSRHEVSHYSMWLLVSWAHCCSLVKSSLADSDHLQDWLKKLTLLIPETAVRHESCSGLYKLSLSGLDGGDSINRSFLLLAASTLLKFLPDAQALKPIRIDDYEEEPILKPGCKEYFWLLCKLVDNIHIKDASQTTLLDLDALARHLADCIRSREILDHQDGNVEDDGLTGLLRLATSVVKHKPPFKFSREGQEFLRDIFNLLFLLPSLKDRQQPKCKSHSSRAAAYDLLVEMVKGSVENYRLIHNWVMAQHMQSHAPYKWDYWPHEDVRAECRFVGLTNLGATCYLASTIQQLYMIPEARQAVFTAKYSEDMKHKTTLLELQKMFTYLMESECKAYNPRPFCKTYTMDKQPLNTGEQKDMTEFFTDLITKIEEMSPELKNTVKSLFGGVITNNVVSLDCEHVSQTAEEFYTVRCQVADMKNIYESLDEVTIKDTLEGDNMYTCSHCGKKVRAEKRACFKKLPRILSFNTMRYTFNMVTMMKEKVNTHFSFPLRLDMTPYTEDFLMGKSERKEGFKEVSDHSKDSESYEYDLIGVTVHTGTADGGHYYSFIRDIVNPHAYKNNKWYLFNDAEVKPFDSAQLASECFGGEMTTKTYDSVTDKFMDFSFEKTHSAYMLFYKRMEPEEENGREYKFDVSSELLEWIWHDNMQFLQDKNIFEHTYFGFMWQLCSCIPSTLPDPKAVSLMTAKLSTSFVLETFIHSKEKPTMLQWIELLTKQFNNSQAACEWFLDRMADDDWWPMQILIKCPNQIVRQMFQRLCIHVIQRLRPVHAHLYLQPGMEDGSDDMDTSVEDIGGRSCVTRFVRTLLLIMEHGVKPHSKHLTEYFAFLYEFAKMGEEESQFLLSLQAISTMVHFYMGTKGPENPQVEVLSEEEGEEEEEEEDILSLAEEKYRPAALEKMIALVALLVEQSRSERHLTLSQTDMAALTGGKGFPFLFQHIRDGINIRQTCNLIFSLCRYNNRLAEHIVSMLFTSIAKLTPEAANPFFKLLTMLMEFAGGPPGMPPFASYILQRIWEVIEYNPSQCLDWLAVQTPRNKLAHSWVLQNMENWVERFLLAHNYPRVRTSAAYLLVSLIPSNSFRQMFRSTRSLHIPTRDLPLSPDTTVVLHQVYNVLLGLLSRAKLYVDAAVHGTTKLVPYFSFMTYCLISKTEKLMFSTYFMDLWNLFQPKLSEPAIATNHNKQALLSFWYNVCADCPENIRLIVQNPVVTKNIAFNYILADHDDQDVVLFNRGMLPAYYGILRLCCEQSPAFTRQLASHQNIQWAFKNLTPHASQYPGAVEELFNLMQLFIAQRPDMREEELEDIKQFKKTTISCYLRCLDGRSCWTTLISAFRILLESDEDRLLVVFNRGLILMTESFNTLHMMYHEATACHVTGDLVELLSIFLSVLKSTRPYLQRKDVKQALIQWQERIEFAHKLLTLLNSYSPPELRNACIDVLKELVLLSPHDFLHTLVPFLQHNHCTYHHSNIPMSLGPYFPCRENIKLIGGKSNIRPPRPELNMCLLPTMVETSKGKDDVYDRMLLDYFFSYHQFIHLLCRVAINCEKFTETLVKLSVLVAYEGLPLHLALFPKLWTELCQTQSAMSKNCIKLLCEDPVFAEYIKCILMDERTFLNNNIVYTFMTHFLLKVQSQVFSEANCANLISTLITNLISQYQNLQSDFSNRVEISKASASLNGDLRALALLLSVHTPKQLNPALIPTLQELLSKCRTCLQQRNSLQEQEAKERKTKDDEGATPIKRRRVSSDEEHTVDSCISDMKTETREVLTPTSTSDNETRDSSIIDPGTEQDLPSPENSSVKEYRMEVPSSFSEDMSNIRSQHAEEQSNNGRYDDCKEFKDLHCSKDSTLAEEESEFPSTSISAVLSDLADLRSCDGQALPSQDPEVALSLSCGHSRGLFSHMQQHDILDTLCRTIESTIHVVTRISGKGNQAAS

Compound: O=C(CCl)Nc1cc(C(F)(F)F)cc(C(F)(F)F)c1 [compound 3]
R value (DMSO/fragment) (CYR61 C134 (O00622); 500 μM, in vitro, MDA-MB-231): 20.0
R value (DMSO/fragment) (NR3C1 C622 (P04150); 500 μM, in vitro, MDA-MB-231): 20.0
R value (DMSO/fragment) (USP34 C1090 (Q70CQ2); 500 μM, invitro, ramos): 19.7

Compound: C=CC(=O)N(c1ccccc1)c1ccc(Br)cc1 [compound 5]
isoTOP-ABPP ratio, Q70CQ2_C1090 (USP34 C1090 (Q70CQ2); 500 μM, invitro, ramos): 20.0

Compound: O=C(CCl)N1CCN(S(=O)(=O)c2ccccc2F)CC1 [compound 10]
isoTOP-ABPP ratio, O00622_C134 (CYR61 C134 (O00622); 500 μM, invitro, 231): 20.0
isoTOP-ABPP ratio, P43403_C117 (ZAP70 C117 (P43403); 231): 20.0
isoTOP-ABPP ratio, P43403_C117 (ZAP70 C117 (P43403); ramos): 20.0

Compound: Cn1cc(S(=O)(=O)N2CCOCC2)cc1C(=O)NC(=O)CCl [compound 11]
isoTOP-ABPP ratio, P04150_C622 (NR3C1 C622 (P04150); 500 μM, invitro, 231): 1.7

Compound: C=CC(=O)N(Cc1cccnc1)c1ccc(Oc2ccccc2)c(C(F)(F)F)c1 [compound 15]
isoTOP-ABPP ratio (reactivity profile), P43403_C117 (ZAP70 C117 (P43403)): 20.0

Compound: O=C(CCl)N1CCC(C(O)(c2ccccc2)c2ccccc2)CC1 [compound 20]
isoTOP-ABPP ratio (reactivity profile), O00622_C134 (CYR61 C134 (O00622)): 20.0
isoTOP-ABPP ratio (reactivity profile), Q70CQ2_C1090 (USP34 C1090 (Q70CQ2)): 2.7
isoTOP-ABPP ratio (reactivity profile), P43403_C117 (ZAP70 C117 (P43403)): 20.0

Compound: O=C(CCl)NC12CC3CC(CC(C3)C1)C2 [compound 21]
isoTOP-ABPP ratio (reactivity profile), Q70CQ2_C1090 (USP34 C1090 (Q70CQ2)): 0.9

Now from value to molecule:

isoTOP-ABPP ratio (reactivity profile), O00622_C134 (CYR61 C134 (O00622)): 1.0
Compound: CC(Cl)C(=O)Nc1cc(C(F)(F)F)cc(C(F)(F)F)c1 (centres unmarked) [compound 25]

isoTOP-ABPP ratio (reactivity profile), O00622_C134 (CYR61 C134 (O00622)): 1.5
Compound: CC(C)CCOCCNC(=O)CCl [compound 27]

isoTOP-ABPP ratio (reactivity profile), P43403_C117 (ZAP70 C117 (P43403)): 1.1
Compound: COc1ccccc1OCCNC(=O)CCl [compound 28]

isoTOP-ABPP reactivity ratio, P04150_C622 (NR3C1 C622 (P04150); 500 μm, in-vitro_ramos_231): 4.8
Compound: C=CC(=O)N(Cc1cccnc1)c1cc(C(F)(F)F)cc(C(F)(F)F)c1 [compound 31]
